Data taken from ChEMBL document CHEMBL5726472, “Oxazolidin-2-one-pyrimidine derivatives and the use thereof as phosphatidylinositol-3-kinase inhibitors” (2019).

How the values were obtained:
[1] = (§1) AlphaScreen (Amplified Luminescent Proximity Homogeneous Assay, ALPHA, Perkin Elmer) is a non-radioactive bead-based proximity assay technology to study biomolecular interactions in a homogenous microtiter plate format. The brand name SureFire denotes AlphaScreen assays that are adapted to quantify the phosphorylation of endogenous cellular proteins in cell lysates, by using matched antibody pairs, which consist of an anti-phospho-kinase and an anti-kinase antibody. The assay allows characterization of kinase signaling in cells as well as measurement of kinase inhibitor effects. The AlphaScreen technology provides several advantages over standard assay techniques such as ELISA, as it avoids time-consuming washing procedures and reduces plate handling. Furthermore, it is miniaturizable at least to a 384-well format and provides sensitivity down to the femtomolar range, dependent on the affinity of the antibodies included in the individual AlphaScreen SureFire assay kit. High sensitivity is reached by an intrinsic amplification mechanism, which involves production of singlet oxygen molecules. SureFire assay kits are commercially available for specific targets and include pairs of validated antibodies (PerkinElmer). This report describes common procedures applied for AlphaScreen SureFire assays and respective semi-automated steps for routine kinase inhibitor profiling in cell-based assays.The Rat-1 cell lines stably overexpressing activated PI3K class I isoforms Rat-1 pBABEpuro Myr-HA-hp110 delta (Rat-1_PI3Kdelta) and Rat-1 pBABEpuro Myr-HA-hp110alpha (Rat-1_PI3Kalpha) and Rat-1 pBABEpuro Myr-HA-hp110 beta (Rat-1_PI3beta) were prepared as described (Maira S M, Stauffer F, Brueggen J, Furet P, Schnell C, Fritsch C, Brachmann S, Chène P, de Pover A, Schoemaker K, Fabbro D, Gabriel D, Simonen M, Murphy L, Finan P, Sellers W, Garcia-Echeverria C (2008), Mol Cancer Ther. 7:1851-63 and Maira S M, Pecchi S, Brueggen J, Huh K, Schnell C, Fritsch C, Nagel T, Wiesmann M, Brachmann S, Dorsch M, Chène P, Schoemaker K, De Pover A, Menezes D, Fabbro D, Sellers W, Garcia-Echeverria C, Voliva CF (2011), Mol. Cancer Ther., accepted). All cell lines were cultivated in complete growth medium (DMEM high glucose, 10% (v/v) fetal bovine serum, 1% (v/v) MEM NEAA, 10 mM HEPES, 2 mM L-glutamine, puromycin (10 μg/mL for Rat-1_PI3Kdelta and Rat-1_PI3Kalpha, 4 ug/mL for Rat-1_PI3beta), 1% (v/v) Pen/Strep) to 90% confluency at 37° C./5% CO2/90% humidity in a humidified CO2 incubator and were split twice a week.The following materials were used for p-AKT(5473) detection in Rat-1 cell lysates: Dulbecco's modified Eagle's medium (DMEM) high glucose (Gibco Invitrogen, Basel, Switzerland, Cat. No. 41965), Heat Inactivated Fetal Bovine Serum, Qualified (HI FBS; Gibco Invitrogen, Basel, Switzerland, Lot. No. 16140), MEM non essential amino acids (NEAA; Gibco Invitrogen, Basel, Switzerland, Cat. No. 11140), HEPES (Gibco Invitrogen, Basel, Switzerland, Cat. No. 15630), Penicillin/Streptomycin (Pen/Strep, 100x; Gibco Invitrogen, Basel, Switzerland, Cat. No. 15140-122), L-Glutamine (Gibco Invitrogen, Basel, Switzerland, Cat. No. 25030), Puromycin (Sigma Aldrich, Buchs, Switzerland, Cat. No. P9620), DMSO (MERCK, Dietikon, Switzerland, Cat. No. 8.02912.2500), H2O, MilliQ-H2O unless otherwise stated (MILLIPORE QGARDOOR1, Millipore, Zug, Switzerland), Bovine serum albumine (BSA; Sigma Aldrich, Buchs, Switzerland Cat. No. A8412), SureFire p-Akt ½ (Ser473) Assay Kit (PerkinElmer, Schwerzenbach, Switzerland, Cat. No. TGRAS50K).The p-Akt(5473) SureFire assay measures the phosphorylation of endogenous cellular Akt ½ at Ser473 in cell lysates. Using Rat-1 cells stably expressing myr-HA-tagged versions of the human PI3Kdelta, PI3Kalpha, or PI3Kbeta p110 catalytic subunit isoforms, the assay was developed as a two-plate protocol in a 384-well format. For compound testing, the cells were seeded at a density of 4000 (Rat-1_PI3Kdelta), 7500 (Rat-1_PI3Kalpha).
[2] = as §1, with “No. 16140), MEM non essential amino acids (NEAA; Gibco Invitrogen, Basel, Switzerland, Cat. No. 11140), HEPES (Gibco Invitrogen, Basel, Switzerland, Cat. No. 15630), Penicillin/Streptomycin (Pen/Strep, 100x; Gibco Invitrogen, Basel, Switzerland, Cat. No. 15140-122), L-Glutamine (Gibco Invitrogen, Basel, Switzerland, Cat. No. 25030), Puromycin (Sigma Aldrich, Buchs, Switzerland, Cat. No. P9620), DMSO (MERCK, Dietikon, Switzerland, Cat. No. 8.02912.2500), H2O, MilliQ-H2O unless otherwise stated (MILLIPORE QGARDOOR1, Millipore, Zug, Switzerland), Bovine serum albumine (BSA; Sigma Aldrich, Buchs, Switzerland Cat. No. A8412), SureFire p-Akt ½ (Ser473) Assay Kit (PerkinElmer, Schwerzenbach, Switzerland, Cat. No. TGRAS50K).The p-Akt(5473) SureFire assay measures the phosphorylation of endogenous cellular Akt ½ at Ser473 in cell lysates. Using Rat-1 cells stably expressing myr-HA-tagged versions of the human PI3Kdelta, PI3Kalpha, or PI3Kbeta p110 catalytic subunit isoforms, the assay was developed as a two-plate protocol in a 384-well format. For compound testing, the cells were seeded at a density of 4000 (Rat-1_PI3Kdelta), 7500 (Rat-1_PI3Kalpha).” left out

SMILES	IC50 [1]	IC50 [2]
Nc1ncc(-c2cc(N3CCCCC3=O)nc(N3CCOCC3)n2)c(C(F)(F)F)n1	1.54 µM	1.04 µM
Nc1ncc(-c2cc(N3CCC(=O)CC3)nc(N3CCOCC3)n2)c(C(F)(F)F)n1	5.31 µM	6.54 µM
Nc1ncc(-c2cc(N3CCOCC3)nc(N3CCOCC3)n2)c(C(F)(F)F)n1	0.156 µM	0.139 µM
Nc1ncc(-c2cc(N3C(=O)O[C@@H](c4ccc(OCCO)cc4)[C@@H]3CO)nc(N3CCOCC3)n2)c(C(F)(F)F)n1	< 0.003 µM	< 0.003 µM
Nc1ncc(-c2cc(N3CCN(c4ccccc4)C3=O)nc(N3CCOCC3)n2)c(C(F)(F)F)n1	1.58 µM	1.47 µM
Nc1ncc(-c2cc(N3CCOC(c4ccccc4)C3)nc(N3CCOCC3)n2)c(C(F)(F)F)n1 (stereo unspecified)	> 10 µM	–
